Series [1] has as its system CCRF-CEM. The experiment in a line: NCI one-dose SRB anti-proliferative screen. The settings on record: Homo sapiens; CCRF-CEM, Leukemia; NCI one dose; read-out: Cell growth inhibition %. The class given is cell-based. The gist of the method: (§1)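 Read-out: sulforhodamine B protein stain measured colorimetrically after exposure of the cells to test compound at 10 µM. This line formed one member of a 60-line panel spanning lung, leukaemia, melanoma, colon, renal, CNS, prostate, breast and ovarian origins.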

Series [2] relates to COLO 205. The experiment in a line: NCI one-dose SRB anti-proliferative screen. The settings on record: Homo sapiens; COLO 205, Colon cancer; NCI one dose; read-out: Cell growth inhibition %. It counts as cell-based. The gist of the method: as §1
Series [3] has as its system DU-145. The experiment in a line: NCI one-dose SRB anti-proliferative screen. Particulars: Homo sapiens; DU-145, Prostate Cancer; NCI one dose; read-out: Cell growth inhibition %. It counts as cell-based. A digest of the protocol:
as §1

In series [4] the test system is EKVX. The series is described as follows: NCI one-dose SRB anti-proliferative screen. It counts as cell-based. Particulars: Homo sapiens; EKVX, Non-Small Cell Lung Cancer; NCI one dose; read-out: Cell growth inhibition %. The gist of the method:
as §1

The subject of series [5] is HCC-2998. The series is described as follows: NCI one-dose SRB anti-proliferative screen. It counts as cell-based. The settings on record: Homo sapiens; HCC-2998, Colon cancer; NCI one dose; read-out: Cell growth inhibition %. A digest of the protocol:
as §1

Series [6] has as its system HOP-62. The series is described as follows: NCI one-dose SRB anti-proliferative screen. It counts as cell-based. Particulars: Homo sapiens; HOP-62, Non-Small Cell Lung Cancer; NCI one dose; read-out: Cell growth inhibition %. A digest of the protocol: as §1
Series [7] concerns KM12. The experiment in a line: NCI one-dose SRB anti-proliferative screen. The class given is cell-based. Particulars: Homo sapiens; KM12, Colon cancer; NCI one dose; read-out: Cell growth inhibition %. The gist of the method: as §1
Series [8] deals with MCF7. The experiment in a line: NCI one-dose SRB anti-proliferative screen. It counts as cell-based. The settings on record: Homo sapiens; MCF7, Breast cancer; NCI one dose; read-out: Cell growth inhibition %. A digest of the protocol: as §1
For series [9], the system named is SK-MEL-5. The experiment in a line: NCI one-dose SRB anti-proliferative screen. The settings on record: Homo sapiens; SK-MEL-5, Melanoma; NCI one dose; read-out: Cell growth inhibition %. The class given is cell-based. A digest of the protocol:
as §1

The test system of series [10] is SK-OV-3. The experiment in a line: NCI one-dose SRB anti-proliferative screen. The class given is cell-based. Particulars: Homo sapiens; SK-OV-3, Ovarian Cancer; NCI one dose; read-out: Cell growth inhibition %. A digest of the protocol: as §1
Series [11] has as its system SW-620. The experiment in a line: NCI one-dose SRB anti-proliferative screen. It counts as cell-based. The settings on record: Homo sapiens; SW-620, Colon cancer; NCI one dose; read-out: Cell growth inhibition %. A digest of the protocol: as §1
Series [12] relates to UACC-257. The series is described as follows: NCI one-dose SRB anti-proliferative screen. The settings on record: Homo sapiens; UACC-257, Melanoma; NCI one dose; read-out: Cell growth inhibition %. The class given is cell-based. A digest of the protocol: as §1
Series [13] is described as follows: MTT cell viability assay in normal cells. The class given is cell-based. Particulars: human, MCF-10A normal mammary epithelial cells. A digest of the protocol: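 Normal human mammary epithelial MCF-10A cells exposed to compounds at 50 µM (0.1% DMSO) for 96 h at 37°C, four wells per compound. Viability by MTT (0.4 mg/mL, 3 h), formazan in DMSO read at 540 nm.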
(Tetrazolium dyes change colour on reduction, which living cells bring about.)

Series [14] has as its target T1, EGFR (Homo sapiens, UniProt P00533).
T1 construct: EGFR cytoplasmic domain (EGFR-CD, amino acids 645–1186); His6 (N); made in house; host or cells: Sf-9 insect cells (baculovirus; pBlueBacHis2B / pFASTBacHTc)
The series is described as follows: EGFR-TK inhibitory assay. The class given is biochemical. Particulars: read-out: EGFR Inhibition IC50 ± SEM.

Series [15] deals with Caspase-9 in MCF-7 breast cancer cells. The experiment in a line: Caspase-9 assay. The class given is cell-based, human.
The target in series [16] is BRAF^V600E. The experiment in a line: biochemical.
Sequence of BRAF^V600E (P28028 whole entry V585E): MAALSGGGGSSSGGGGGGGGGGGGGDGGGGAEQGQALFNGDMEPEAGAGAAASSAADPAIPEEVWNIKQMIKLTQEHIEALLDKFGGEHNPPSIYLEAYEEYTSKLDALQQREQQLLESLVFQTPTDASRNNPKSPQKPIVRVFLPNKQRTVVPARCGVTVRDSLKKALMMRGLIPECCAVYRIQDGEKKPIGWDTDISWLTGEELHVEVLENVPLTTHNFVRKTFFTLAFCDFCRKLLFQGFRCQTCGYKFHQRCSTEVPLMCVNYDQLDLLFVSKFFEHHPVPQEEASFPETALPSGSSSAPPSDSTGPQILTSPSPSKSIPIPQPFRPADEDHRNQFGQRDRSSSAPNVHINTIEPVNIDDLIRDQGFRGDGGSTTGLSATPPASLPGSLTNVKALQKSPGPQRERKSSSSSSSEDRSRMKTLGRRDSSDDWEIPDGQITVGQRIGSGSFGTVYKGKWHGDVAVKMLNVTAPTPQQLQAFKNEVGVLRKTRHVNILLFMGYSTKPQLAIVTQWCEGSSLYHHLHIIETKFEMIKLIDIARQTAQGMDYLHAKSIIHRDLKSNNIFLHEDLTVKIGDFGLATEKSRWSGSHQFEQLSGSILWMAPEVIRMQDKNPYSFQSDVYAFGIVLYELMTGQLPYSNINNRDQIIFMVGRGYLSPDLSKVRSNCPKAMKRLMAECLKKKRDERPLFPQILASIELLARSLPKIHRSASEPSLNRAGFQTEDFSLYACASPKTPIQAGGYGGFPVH
Description: To further denature the protein, heat (70° C) was applied for 5 min. […] 10 µL of each reaction was loaded into the precast plates and electrophoresis was allowed to proceed. After completion of electrophoresis, the front part of the precast gel plate (holding hot ATP) was cut and afterwards cast-off. The dried gel was developed using a phosphor screen.
In series [17] the test system is Caspase-3 in MCF-7 breast cancer cells. The series is described as follows: Caspase-3 assay.
Description: All reagents were allowed to reach room temperature before use. All liquid reagents were gently mixed before use. The number of 8-well strips needed for the assay was determined. These were inserted into the frame(s) for current use. A total of 100 µL of the Standard Diluent Buffer was added to the zero standard wells. Well(s) reserved for chromogen blank were left empty. A total of 100 µL of standards and controls or diluted samples was added to the appropriate microtiter wells. The sample dilution chosen was optimized for each experimental system. The side of the plate was gently tapped on to
mix. Wells were covered with a plate cover and incubated for 2 h at room temperature. The solution was thoroughly aspirated or decanted from the wells and the liquid was discarded; wells were washed four times. […] The side of the plate was gently tapped on to mix. The plate was covered with a plate cover and incubated for 1h at room temperature. The solution was thoroughly aspirated or decanted from wells and the liquid was discarded; wells were washed four times. A total of 100 µL Anti-Rabbit IgG HRP Working Solution was added to each well except the chromogen blank(s). The working dilution was prepared as described in Preparing IgG HRP. Wells were covered with the plate cover and incubated for 30 min at room temperature. The solution was thoroughly aspirated or decanted from the wells and the liquid was discarded. Wells were washed four times. A total of 100 µL of Stabilized Chromogen was added to each well. The liquid in the wells began to turn blue. It was incubated for 30 min at room temperature and in the dark. The incubation time for chromogen substrate was determined by the microtiter plate reader used. Many plate readers have the capacity to record a maximum optical density (O.D.) of 2.0. The O.D. values were monitored, and the substrate reaction was stopped before the O.D. of the positive wells exceeds the limits of the instrument. The O.D. values at 450 nm could only be read after the Stop Solution had been added to each well. A total of 100 µL of Stop Solution was added to each well. The side of the plate was gently tapped to mix. The solution in the wells changed from blue to yellow. The absorbance of each well was read at 450 nm, having blanked the plate reader against a chromogen blank composed of 100 µL each of Stabilized Chromogen and Stop Solution. The plate was read within 2 h after adding the Stop Solution. A curve fitting software was used to generate the standard curve.
The concentrations for unknown samples and controls from the standard curve were read. Value(s) obtained for sample(s) by the appropriate dilution factor were multiplied to correct for the dilution in step 3.
Series [18] deals with BAX in MCF-7. The experiment in a line: BAX activation assay.
Description: All reagents were brought to room temperature for at least 30 min before opening (except the human BAX-α Standard). Human BAX-α Standard solution was not be left at room temperature for more than 10 min. Duplicates of all standards, controls, and samples were run. The Assay Layout Sheet was used to determine the number of wells to be used, and any remaining wells were put with the desiccant back into the pouch, and the ziplock was sealed. Unused wells were stored at 4 ◦C. A total of 100 µL of Assay Buffer was pipetted into the S0 (0 pg/mL standard) wells. A total of 100 µL of Standards #1 through #6 was pipetted into the appropriate wells. A total of 100 µL of the samples was pipetted into the appropriate wells. The plate was gently tapped to mix the contents. The plate was sealed and incubated at room temperature on a plate shaker for 1 h at ~500 rpm. The contents of the wells were emptied and washed by adding 400 µL of wash solution to every well. The wash was repeated four more times for a total of five washes. After the final wash, the wells were emptied or aspirated and firmly the plate on a lint-free paper towel was tapped to remove any remaining wash buffer. A total of 100 µL of yellow antibody was pipetted into each well, except the Blank. The plate was sealed and incubated at room temperature on a plate shaker for 1 h at ~500 rpm. The contents of the wells were emptied and washed by adding 400 µL of wash solution to every well. The wash was repeated four more times for a total of five washes. After the final wash, the wells were emptied or aspirated, and the plate was firmly tapped on a lint-free paper towel to remove any remaining wash buffer. A total of 100 µL of blue Conjugate was added to each well, except the Blank. The plate was sealed and incubated at room temperature on a plate shaker for 30 min at ~500 rpm. The contents of the wells were emptied and washed by adding 400 µL of wash solution to every well. The wash was repeated four more times for a total of five washes. After the final wash, the wells were emptied or aspirated and the plate was firmly tapped on a lint-free paper towel to remove any remaining wash buffer. A total of 100 µL of Substrate Solution was pipetted into each well. It was incubated for 30 min at room temperature on a plate shaker at ~500 rpm. A total of 100 µL Stop Solution was pipetted into to each well. The plate reader was blanked against the Blank wells, and the optical density was read at 450 nm. The average net optical density (OD) bound for each standard and sample was calculated by subtracting the average Blank OD from the average OD for each standard and sample. Using linear graph paper, the Average Net OD for each standard versus BAX concentration in each standard were plotted. A straight line was approximated through the points. The concentration of BAX in the unknowns could be determined by interpolation.

“And” between values parts separate entries of the source, which are not always exact repeats. Equal values may be shown once.

T1 sequence (P00533 669-1210): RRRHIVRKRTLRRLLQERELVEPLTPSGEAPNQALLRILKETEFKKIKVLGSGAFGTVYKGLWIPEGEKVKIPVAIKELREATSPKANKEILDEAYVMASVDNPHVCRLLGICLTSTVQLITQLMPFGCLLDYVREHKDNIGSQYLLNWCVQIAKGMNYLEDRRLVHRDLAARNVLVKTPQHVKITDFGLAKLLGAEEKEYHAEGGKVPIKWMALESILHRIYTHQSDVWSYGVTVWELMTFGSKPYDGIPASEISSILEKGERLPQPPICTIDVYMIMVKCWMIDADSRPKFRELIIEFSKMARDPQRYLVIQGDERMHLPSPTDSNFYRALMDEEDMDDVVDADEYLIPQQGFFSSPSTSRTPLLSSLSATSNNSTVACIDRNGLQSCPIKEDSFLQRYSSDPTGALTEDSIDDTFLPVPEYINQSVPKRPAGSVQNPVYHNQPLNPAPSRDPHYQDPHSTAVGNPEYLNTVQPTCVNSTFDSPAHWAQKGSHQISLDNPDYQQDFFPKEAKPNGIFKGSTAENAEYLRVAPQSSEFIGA

In general, inhibition refers to the share of the control response that was lost under treatment. For orientation: viability means the share of living cells, or the viability signal relative to a control. A higher viability goes with better survival. One may read the IC50 as the concentration at which inhibition is half-maximal. `COc1ccc(-c2nc3cc(-c4nnc(SCC(=O)Nc5ccc(C(=O)/C=C/c6ccc(Cl)cc6)cc5)o4)ccc3[nH]2)cc1` [Compound 7l, 2-{5-[2-(4-Methoxyphenyl)-1 H-benzo[d]imidazol-5-yl]-1,3,4-oxadiazol-2-ylthio}-N-{4-[(E)-3-(4-chlorophenyl)acryloyl]phenyl}acetamide]: the inhibition at 10 µM in [1] worked out at 3.98%; in series [2], 0%; in series [3], 0%; in series [4], 0.26%; in [5] it was 0%; in series [6], 0.53%. In addition, the inhibition at 10 µM in series [7] came out at 0%; in series [8], 22%; in series [9] it was 1.12%; in series [10], 0%; in series [11], 3.03%; in series [12] it was 0%. Moreover, in series [13], the viability at 96 h, 50 µM is 89%. Besides, the IC50 in series [14] was determined as 800 ± 100 nM; in series [16], 1900 ± 200 nM. The “Caspase-9 Fold change” value in [15] (MCF-7, vs untreated control) is 16 fold and 16.00 fold. Moreover, the “Caspase-9 Conc” value in [15] (MCF-7 breast cancer cells) was found to be 15.100 ng/mL. For the same molecule, in [17] (MCF-7, vs untreated control), the “Caspase-3 Fold change” value stood at 7.50 fold. The “Caspase-3 Conc” value in series [17] (MCF-7 breast cancer cells) was 492.50 ± 4.00 pg/mL. In addition, the “BAX Conc” value in series [18] (MCF-7) is 271 pg/mL and 271.600 pg/mL. Besides, the “BAX Fold change” value in [18] (MCF-7, vs untreated control) was 32 fold and 32.0 fold.

Values taken from article PMC10504751, “Chalcone/1,3,4-Oxadiazole/Benzimidazole hybrids as novel anti-proliferative agents inducing apoptosis and inhibiting EGFR & BRAFV^600E” (BMC Chemistry, 2023).
